Patent US20260138976A1 (Hoffmann-La Roche Inc., priority 2022, published 2026)

Tests used:
DGK α kinase = target: T1, DGK α kinase (Homo sapiens, UniProt P23743); test: DGKalpha kinase ADP Glo assay run by Reaction Biology Corp.; assay type: biochemical; conditions: 2 nM kinase, 50 µM ATP, 500 μM DLG, 10-dose duplicate
T1 construct: purchased Reaction Biology Corp. (contract assay service)
Experimental: DGK α and ζ kinases use ATP to phosphorylate the substrate 1,2-dilauroyl-sn-glycerol (DLG). ATP is converted to ADP as a result of this enzymatic reaction.
After the kinase reaction, an ATP-depletion reagent is added to terminate the kinase reaction and deplete any remaining ATP, leaving only ADP. Second, a detection reagent is added to simultaneously convert ADP to ATP and allow the newly synthesized ATP to be converted to light using a coupled luciferase/luciferin reaction.
DGK α and ζ kinase ADP Glo assays were ran by Reaction Biology Corp., 1 Great Valley Parkway, Suite 2, Malvern, 19355, PA, USA. Information provided by the service provider are the following: DGK α and ζ kinases were used at 2 nM final concentration. Reactions were carried out at 50 µM ATP. 500 μM of the substrate DLG (Dilauroyl-sn-glycerol) was used.

MV-3 cells = test: T-cell - TCB - MV3 killing assay; assay type: cell-based, human; conditions: for Emax: Homo sapiens, MV-3, 120 h, % TCL normalized: MCSP-TCB only = neutral control, 20 μM reference compound A1 = 100%, read-out: MSCP TCB killing MV-3 cells 5 d Emax (%); for EC50: primary human T-cells + MV-3 RFP cells, MCSP-TCB 1.5 pM-5 pM, 120 hours imaging, read-out: MSCP TCB killing MV-3 cells 5 d EC50
Experimental: All culturing steps are executed at 5% CO2, 37° C. and 95% humidity. MV-3 RFP cells are cultured in MV-3 medium (DMEM+10% FBS, 1× PenStrep and 0.5 μg/mL Puromycin) for at least 3 weeks. Cultured MV-3 cells at 80% confluency are washed once with PBS−− and trypsinized until detached. […] Cells are seeded with 100 μL/well into a 96-well plate (TTP, #92696), and placed for 40 minutes without moving at room temperature in order to achieve evenly distributed attachment of cells. Plates are then incubated until further use.
On the next day, expanded primary human T-cells are thawed and resuspended in T-cell medium to 4*10^6 cells/mL. For 3 hours, they are cultured in a 6-well plate with 6 mL per well at maximum. After culturing the T-cells, they are filtered through a cell strainer (Miltenyi Biotech, #130-041-407), counted again, and cell concentration is adjusted to 2*10^6 cells/mL.
MCSP-TCB or PBS are pre-diluted in T-cell medium (concentration depending on T-cell donor), 4 times more concentrated than the end-concentration. 60 μL/well of pre-dilutions are then distributed into a round bottom plate (Costar, #3799) according to plate layout. Compounds are added in a 9 pt dose response with the Tecan D300e Digital Dispenser, as well 4 times more concentrated than the end-concentration. DMSO concentration of all wells is adjusted to 0.8%, resulting in 0.2% as final concentration.
60 μL per well of T-cell suspension are added to the prepared round bottom plate and resuspended with a manual multichannel. 100 μL/well of the resuspended T-cell suspension including treatments are then transferred cautiously to the over-night cultured MV-3 cells according to plate layout. 100 μL T-cell medium only is added to the outer MV-3 wells only. Final compound DR is starting at 20 μM with a dilution factor of 3.333. Final TCB concentration is between 1.5 pM to 5 pM and was determined for each T-cell donor individually by running TCB titrations. For each donor, a TCB concentration was chosen which corresponds to 10-20% MV3 baseline cell killing in the absence of compound treatment. Positive control is the reference compound A1 which is added in a DR, as well as additional wells with only 20 μM. 20 μM of reference compound A1 represent the positive stimulator control, TCB only (DMSO wells) the neutral control.
After transfer of T-cells with treatment pre-dilutions, MV-3 cells are imaged by time-lapse microscopy using IncucyteZOOM™ (Essen BioScience, MI, USA). Imaging is performed every 3 hours for a total of 120 hours (10× objective, phase and red image channels, acquisition time 400 ms, Green/Red 4614 optical module). RFP object count per well is analysed in the IncucyteZOOM™ Software (Version 2019B Rev2) with a mask that was previously created and optimized for MV-3 cells. Raw data is exported as object count/well and values are normalized as % TCL compared to wells with MV-3 only, representing 100% growth and therefore 0% TCL.
Calculated % TCL values are analysed in Genedata Screener using Roche Normalization PCT_POS_CTRL with MCSP-TCB only set as Neutral Control and 20 μM of the reference compound A1 set as Stimulator Control/100%.
Induced TCL by compounds without TCB treatment or toxicity (observed in the PBS condition) were be flagged.

T1 sequence (P23743 whole entry): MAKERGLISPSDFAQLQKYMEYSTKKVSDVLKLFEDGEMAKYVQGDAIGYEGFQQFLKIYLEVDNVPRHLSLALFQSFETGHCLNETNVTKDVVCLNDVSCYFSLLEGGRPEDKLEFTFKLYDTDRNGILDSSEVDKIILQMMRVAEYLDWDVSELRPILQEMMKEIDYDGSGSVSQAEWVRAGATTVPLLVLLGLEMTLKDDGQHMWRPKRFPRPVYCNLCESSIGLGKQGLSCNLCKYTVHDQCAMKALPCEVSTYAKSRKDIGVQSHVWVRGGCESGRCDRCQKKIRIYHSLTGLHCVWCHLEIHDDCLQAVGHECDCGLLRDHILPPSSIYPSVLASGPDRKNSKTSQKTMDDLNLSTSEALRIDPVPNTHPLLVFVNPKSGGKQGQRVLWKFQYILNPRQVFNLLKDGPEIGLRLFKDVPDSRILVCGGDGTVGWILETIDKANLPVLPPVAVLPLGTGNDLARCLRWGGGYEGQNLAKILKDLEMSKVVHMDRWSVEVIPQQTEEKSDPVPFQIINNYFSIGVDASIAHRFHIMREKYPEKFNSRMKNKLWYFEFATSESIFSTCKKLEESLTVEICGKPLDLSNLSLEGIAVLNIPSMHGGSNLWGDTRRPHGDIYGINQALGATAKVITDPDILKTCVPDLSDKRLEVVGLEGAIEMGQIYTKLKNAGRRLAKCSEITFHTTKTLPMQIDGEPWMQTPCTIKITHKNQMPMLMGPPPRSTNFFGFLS

| IC50 (DGK α kinase) | SMILES | Emax (MV-3 cells) | EC50 (MV-3 cells) |
| --- | --- | --- | --- |
| 1410 nM | Cc1noc(-c2ccc(CN3C(=O)[C@@H](N)CS(=O)(=O)c4ccc(-c5nnc(C(C)(C)C)o5)cc43)cc2)n1 [Example 20, (3R)-3-amino-7-(5-tert-butyl-1,3,4-oxadiazol-2-yl)-5-[[4-(3-methyl-1,2,4-oxadiazol-5-yl)phenyl]methyl]-1,1-dioxo-2,3-dihydro-1λ^6,5-benzothiazepin-4-one] | – | – |
| 238 nM | CC(C)(C#N)c1nnc(-c2ccc3c(c2)N(Cc2ccc(-c4ccc(C(F)(F)F)cn4)cc2)C(=O)[C@@H](N)CS3(=O)=O)o1 [Example 47] | 103% | 280 nM |
| 63.6 nM | C[C@@](N)(c1nnc(-c2ccc3c(c2)N(Cc2ccc(-c4noc(C(F)(F)F)n4)cc2)C(=O)[C@@H](N)CS3(=O)=O)o1)C(F)(F)F [Example 52, (3R)-3-amino-7-[5-[(1R)-1-amino-2,2,2-trifluoro-1-methyl-ethyl]-1,3,4-oxadiazol-2-yl]-1,1-dioxo-5-[[4-[5-(trifluoromethyl)-1,2,4-oxadiazol-3-yl]phenyl]methyl]-2,3-dihydro-1λ^6,5-benzothiazepin-4-one] | 95% | 52 nM |
| 160 nM | C[C@](N)(c1nnc(-c2ccc3c(c2)N(Cc2ccc(-c4noc(C(F)(F)F)n4)cc2)C(=O)[C@@H](N)CS3(=O)=O)o1)C(F)(F)F [Example 53, (3R)-3-amino-7-[5-[(1S)-1-amino-2,2,2-trifluoro-1-methyl-ethyl]-1,3,4-oxadiazol-2-yl]-1,1-dioxo-5-[[4-[5-(trifluoromethyl)-1,2,4-oxadiazol-3-yl]phenyl]methyl]-2,3-dihydro-1λ^6,5-benzothiazepin-4-one] | 98% | 137 nM |
| 105 nM | N[C@H]1CS(=O)(=O)c2ccc(-c3nnc(N4CCOC(F)(F)C4)o3)cc2N(Cc2ccc(-c3noc(C(F)(F)F)n3)cc2)C1=O [Example 78, (3R)-3-amino-7-[5-(2,2-difluoromorpholin-4-yl)-1,3,4-oxadiazol-2-yl]-1,1-dioxo-5-[[4-[5-(trifluoromethyl)-1,2,4-oxadiazol-3-yl]phenyl]methyl]-2,3-dihydro-1λ^6,5-benzothiazepin-4-one] | 112% | 93 nM |
| 226 nM | COc1ccc(-c2ccc(CN3C(=O)[C@@H](N)CS(=O)(=O)c4ccc(-c5nnc(N(C)CC(F)(F)F)o5)cc43)cc2)cc1 [Example 81, (3R)-3-amino-5-[[4-(4-methoxyphenyl)phenyl]methyl]-7-[5-[methyl(2,2,2-trifluoroethyl)amino]-1,3,4-oxadiazol-2-yl]-1,1-dioxo-2,3-dihydro-1λ^6,5-benzothiazepin-4-one] | 98% | 343 nM |
| – | CC(C)(C)c1nnc(-c2ccc3c(c2)N(Cc2ccc(-n4cnc(C(F)(F)F)n4)cc2)C(=O)[C@@H](N)CS3(=O)=O)o1 [Example 91, (3R)-3-amino-7-(5-tert-butyl-1,3,4-oxadiazol-2-yl)-1,1-dioxo-5-[[4-[3-(trifluoromethyl)-1,2,4-triazol-1-yl]phenyl]methyl]-2,3-dihydro-126,5-benzothiazepin-4-one] | 96% | 237 nM |
| – | CC(C)(C#N)c1nnc(-c2ccc3c(c2)N(Cc2ccc(-n4ccc(C(F)(F)F)n4)cc2)C(=O)[C@@H](N)CS3(=O)=O)o1 [Example 121, 2-[5-[(3R)-3-amino-1,1,4-trioxo-5-[[4-[3-(trifluoromethyl)pyrazol-1-yl]phenyl]methyl]-2,3-dihydro-1λ^6,5-benzothiazepin-7-yl]-1,3,4-oxadiazol-2-yl]-2-methyl-propanenitrile] | 98% | 109 nM |
| 23.3 nM | CC(C)(C#N)c1nnc(-c2ccc3c(c2)N(Cc2ccc(-c4ccc(OC(F)(F)F)cn4)cc2)C(=O)[C@@H](N)CS3(=O)=O)o1 [Example 124] | 100% | 23 nM |
| – | C[C@@](N)(c1nnc(-c2ccc3c(c2)N(Cc2ccc(-n4ccc(C(F)(F)F)n4)cc2)C(=O)[C@@H](N)CS3(=O)=O)o1)C(F)(F)F [Example 157, (3R)-3-amino-7-[5-[(1R)-1-amino-2,2,2-trifluoro-1-methyl-ethyl]-1,3,4-oxadiazol-2-yl]-1,1-dioxo-5-[[4-[3-(trifluoromethyl)pyrazol-1-yl]phenyl]methyl]-2,3-dihydro-1λ^6,5-benzothiazepin-4-one] | 100% | 119 nM |
| – | COC(=O)N1CC2CC(c3nnc(-c4ccc5c(c4)N(Cc4ccc(-c6ccc(C(F)(F)F)cn6)cc4)C(=O)[C@@H](N)CS5(=O)=O)o3)(C2)C1 [Example 159, methyl 1-[5-[(3R)-3-amino-1,1,4-trioxo-5-[[4-[5-(trifluoromethyl)-2-pyridyl]phenyl]methyl]-2,3-dihydro-1λ^6,5-benzothiazepin-7-yl]-1,3,4-oxadiazol-2-yl]-3-azabicyclo[3.1.1]heptane-3-carboxylate] | 102% | 166 nM |
| – | CC(C)(c1nnc(-c2ccc3c(c2)N(Cc2ccc(-c4noc(C(F)(F)F)n4)cc2)C(=O)[C@@H](N)CS3(=O)=O)o1)C(F)(F)F [Example 166] | 102% | 10 nM |
